In PMC12984539 (European journal of pharmacology, 2024):

Test system: μ receptor
Experiment: Hemi-equilibrium simulation of buprenorphine antagonism of DAMGO
Details: chosen to match the experimental DAMGO concentration-response curve

In the case of `C[C@@H](NC(=O)[C@@H](N)Cc1ccc(O)cc1)C(=O)NCC(=O)N(C)[C@@H](Cc1ccccc1)C(=O)NCCO` [DAMGO, [D-Ala^2, N-MePhe^4, Gly-ol]-enkephalin], the “τ (efficacy of the agonist in the system)” value is reported as 2.3.
